According to the supplement of paper PMC10307832:

Experiments:
Experiment in all cases: relative viability (nuclei count vs DMSO), 5 days (fraction); higher = more cells survive
[1] = tested on: NCI-H1437
How it was run: (§1)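 Relative viability equals treated-well nuclei counts divided by vehicle-well nuclei counts. Counts came from 4× images of lung cancer cell lines grown in 1536-well plates for 5 days after pin-tool dosing on the day after seeding. Dosing used one drug alone or a fixed anchor-drug dose plus five library-drug doses (not always all listed) in √10 steps, and values are medians of duplicate plates.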

[2] = tested on: NCI-H2087
How it was run: as §1

[3] = tested on: NCI-H650
How it was run: as §1

[4] = tested on: PC-3 [JPC-3]
How it was run: as §1

[5] = tested on: LOU-NH91
How it was run: as §1

[6] = tested on: H3255
How it was run: as §1

[7] = tested on: 201T
How it was run: as §1

[8] = tested on: NCI-H647
How it was run: as §1

[9] = tested on: LCLC-97TM1
How it was run: as §1

[10] = tested on: BEN
How it was run: as §1

[11] = tested on: NCI-H1975
How it was run: as §1

[12] = tested on: EPLC-272H
How it was run: as §1

[13] = tested on: SW 1573
How it was run: as §1

[14] = tested on: NCI-H2085
How it was run: as §1

[15] = tested on: EKVX
How it was run: as §1

[16] = tested on: NCI-H2342
How it was run: as §1

[17] = tested on: COR-L 105
How it was run: as §1

[18] = tested on: NCI-H1666
How it was run: as §1

[19] = tested on: NCI-H2170
How it was run: as §1

[20] = tested on: LU99A
How it was run: as §1

[21] = tested on: HCC-827
How it was run: as §1

O=c1cc(N2CCOCC2)oc2c(-c3cccc4c3sc3ccccc34)cccc12 + Cc1nc(Nc2ncc(C(=O)Nc3c(C)cccc3Cl)s2)cc(N2CCN(CCO)CC2)n1 [Dasatinib] (partner 0.075 µM)
relative viability ([1]; first compound 0.01 µM): 0.337
relative viability ([1]; first compound 0.03162 µM): 0.329
relative viability ([1]; first compound 0.1 µM): 0.492
relative viability ([1]; first compound 0.3162 µM): 0.509
relative viability ([1]; first compound 1 µM): 0.344
relative viability ([2]; first compound 0.01 µM): 0.989
relative viability ([2]; first compound 0.03162 µM): 1.02
relative viability ([2]; first compound 0.1 µM): 0.917
relative viability ([2]; first compound 0.3162 µM): 0.89
relative viability ([2]; first compound 1 µM): 0.887
relative viability ([3]; first compound 0.03162 µM): 0.493
relative viability ([3]; first compound 0.1 µM): 0.314
relative viability ([3]; first compound 0.3162 µM): 0.512
relative viability ([3]; first compound 1 µM): 0.405
relative viability ([4]; first compound 0.01 µM): 0.97
relative viability ([4]; first compound 0.03162 µM): 0.974
relative viability ([4]; first compound 0.1 µM): 1.02
relative viability ([4]; first compound 0.3162 µM): 0.935
relative viability ([4]; first compound 1 µM): 0.993
relative viability ([5]; first compound 0.01 µM): 0.546
relative viability ([5]; first compound 0.03162 µM): 0.55
relative viability ([5]; first compound 0.1 µM): 0.537
relative viability ([5]; first compound 0.3162 µM): 0.584
relative viability ([5]; first compound 1 µM): 0.563
relative viability ([6]; first compound 0.01 µM): 0.348
relative viability ([6]; first compound 0.03162 µM): 0.338
relative viability ([6]; first compound 0.1 µM): 0.337
relative viability ([6]; first compound 0.3162 µM): 0.379
relative viability ([6]; first compound 1 µM): 0.345
relative viability ([7]; first compound 0.01 µM): 0.592
relative viability ([7]; first compound 0.03162 µM): 0.592
relative viability ([7]; first compound 0.1 µM): 0.596
relative viability ([7]; first compound 0.3162 µM): 0.505
relative viability ([7]; first compound 1 µM): 0.596
relative viability ([8]; first compound 0.01 µM): 0.239
relative viability ([8]; first compound 0.03162 µM): 0.18
relative viability ([8]; first compound 0.1 µM): 0.0909
relative viability ([8]; first compound 0.3162 µM): 0.224
relative viability ([8]; first compound 1 µM): 0.211
relative viability ([9]; first compound 0.01 µM): 0.904
relative viability ([9]; first compound 0.03162 µM): 0.86
relative viability ([9]; first compound 0.1 µM): 0.788
relative viability ([9]; first compound 0.3162 µM): 0.917
relative viability ([9]; first compound 1 µM): 0.898
relative viability ([10]; first compound 0.01 µM): 0.317
relative viability ([10]; first compound 0.03162 µM): 0.362
relative viability ([10]; first compound 0.1 µM): 0.3
relative viability ([10]; first compound 0.3162 µM): 0.354
relative viability ([10]; first compound 1 µM): 0.266
relative viability ([11]; first compound 0.01 µM): 0.333
relative viability ([11]; first compound 0.03162 µM): 0.349
relative viability ([11]; first compound 0.1 µM): 0.333
relative viability ([11]; first compound 0.3162 µM): 0.378
relative viability ([11]; first compound 1 µM): 0.404
relative viability ([12]; first compound 0.01 µM): 0.445
relative viability ([12]; first compound 0.03162 µM): 0.424
relative viability ([12]; first compound 0.3162 µM): 0.339
relative viability ([12]; first compound 1 µM): 0.263
relative viability ([13]; first compound 0.01 µM): 0.463
relative viability ([13]; first compound 0.03162 µM): 0.482
relative viability ([13]; first compound 0.1 µM): 0.535
relative viability ([13]; first compound 0.3162 µM): 0.546
relative viability ([13]; first compound 1 µM): 0.475
relative viability ([14]; first compound 0.01 µM): 0.267
relative viability ([14]; first compound 0.03162 µM): 0.241
relative viability ([14]; first compound 0.1 µM): 0.253
relative viability ([14]; first compound 0.3162 µM): 0.225
relative viability ([14]; first compound 1 µM): 0.219
relative viability ([15]; first compound 0.01 µM): 0.528
relative viability ([15]; first compound 0.03162 µM): 0.469
relative viability ([15]; first compound 0.1 µM): 0.672
relative viability ([15]; first compound 0.3162 µM): 0.607
relative viability ([15]; first compound 1 µM): 0.605
relative viability ([16]; first compound 0.01 µM): 0.352
relative viability ([16]; first compound 0.03162 µM): 0.307
relative viability ([16]; first compound 0.1 µM): 0.332
relative viability ([16]; first compound 0.3162 µM): 0.322
relative viability ([16]; first compound 1 µM): 0.325
relative viability ([17]; first compound 0.01 µM): 0.316
relative viability ([17]; first compound 0.03162 µM): 0.327
relative viability ([17]; first compound 0.1 µM): 0.314
relative viability ([17]; first compound 0.3162 µM): 0.372
relative viability ([17]; first compound 1 µM): 0.304
relative viability ([18]; first compound 0.01 µM): 0.775
relative viability ([18]; first compound 0.03162 µM): 0.787
relative viability ([18]; first compound 0.1 µM): 0.755
relative viability ([18]; first compound 0.3162 µM): 0.809
relative viability ([18]; first compound 1 µM): 0.754
relative viability ([19]; first compound 0.01 µM): 0.574
relative viability ([19]; first compound 0.03162 µM): 0.569
relative viability ([19]; first compound 0.1 µM): 0.728
relative viability ([19]; first compound 0.3162 µM): 0.557
relative viability ([19]; first compound 1 µM): 0.621
relative viability ([20]; first compound 0.01 µM): 0.552
relative viability ([20]; first compound 0.03162 µM): 0.596
relative viability ([20]; first compound 0.1 µM): 0.741
relative viability ([20]; first compound 0.3162 µM): 0.535
relative viability ([20]; first compound 1 µM): 0.421
relative viability ([21]; first compound 0.01 µM): 0.338
relative viability ([21]; first compound 0.03162 µM): 0.293
relative viability ([21]; first compound 0.1 µM): 0.323
relative viability ([21]; first compound 0.3162 µM): 0.283
relative viability ([21]; first compound 1 µM): 0.328
